Laboratory results from US7834144B2 (priority 2005, dated 2010).
Values joined by “and” are separate entries in the source; they are usually repeats but may differ in a detail not shown here. Identical values can stand only once. Like-named read-outs stand apart in the source and are kept apart here. Where a SMILES comes first, the peptide text is derived from it. Where no end group is shown, it is not given here. [ ]: non-standard residue; d: D form. The star is where a group is joined. ξ: configuration not given here. Biotinyl(4ξ) = O=C1N[C@H]2CSC(CCCCC(=O)*)[C@H]2N1; Nspe = C[C@H](NCC(=O)O)c1ccccc1; NhArg = N=C(N)NCCCCNCC(=O)O; Nmpe = not defined here; Nae = not defined here; Nlys = NCCCCNCC(=O)O

How the values were obtained:
[1] = target: PrPc (Homo sapiens, UniProt P04156); format: binding
[2] = target: PrP^Sc (Homo sapiens, UniProt P04156); format: binding; settings: for Exp. Mean (1 ul 10% CJD BH): streptavidin beads
[3] = Table 5, 70% human plasma, streptavidin beads, ELISA signal
[4] = Table 5, 1 ul 10% CJD BH, 70% human plasma
[5] = Table 5, 70% human plasma, ELISA signal
[6] = Table 6, CJD brain homogenate in 20% human plasma
[7] = Table 6, CJD brain homogenate in 20% human plasma, ELISA signal

Compound | Control Mean (1 ul 10% Normal BH) [1, 3] | Exp. Mean (as % of 68) [2, 4] [%] | Exp. Mean (1 ul 10% CJD BH) [2, 5] | Mean (% of 68) [2, 6] [%] | Mean [2, 7] | also measured
CC(=O)N(CCCCN)CC(=O)N(CCCCN)CC(=O)N(CCCCNC(=N)N)CC(=O)N(CC(=O)N(CCCCN)CC(=O)N(CC(=O)N[C@@H](CCCCNC(=O)CCCCC1SC[C@@H]2NC(=O)N[C@H]12)C(N)=O)[C@@H](C)c1ccccc1)[C@@H](C)c1ccccc1 (some centres unmarked) [Peptoid Reagent II] (Ac-[Nlys][Nlys][NhArg][Nspe][Nlys][Nspe]K(Biotinyl(4ξ))-NH2) | 7.02 | 110.8 | 463.5 | 124.85 | 106.10 | 
CC(=O)N(CCCCN)CC(=O)N(CCCCN)CC(=O)N(CCCCN)CC(=O)N(CC(=O)N(CCCCN)CC(=O)N(CC(=O)N[C@@H](CCCCNC(=O)CCCCC1SC[C@@H]2NC(=O)N[C@H]12)C(N)=O)[C@@H](C)c1ccccc1)[C@@H](C)c1ccccc1 (some centres unmarked) [Peptoid Reagent IX] (Ac-[Nlys][Nlys][Nlys][Nspe][Nlys][Nspe]K(Biotinyl(4ξ))-NH2) | 9.47 | 126.5 | 528.8 |  |  | Control Mean (1 ul 10% Normal BH) ([1]; Table 4, 70% human plasma, streptavidin beads, ELISA signal): 20.1; Exp. Mean (as % of 68) ([2]; Table 4, 1 ul 10% CJD BH, 70% human plasma): 121.9%; Exp. Mean (1 ul 10% CJD BH) ([2]; Table 4, 70% human plasma, ELISA signal): 1039.4
CC(=O)N(CCCCN)CC(=O)N(CCCCN)CC(=O)N(CCCCN)CC(=O)N(CCCCN)CC(=O)N(CCCCN)CC(=O)N[C@@H](CCCCNC(=O)CCCCC1SC[C@@H]2NC(=O)N[C@H]12)C(N)=O (some centres unmarked) [Peptoid Reagent I] |  |  |  | 104.31 | 88.64 | Normal Mean ([1]; Table 8, 2 microliters of 10% normal brain homogenate in 70% human plasma): 3.31; CJD Mean ([2]; Table 8, 2 microliters of 10% CJD brain homogenate in 70% human plasma): 124.47
CC(=O)N(CCCCN)CC(=O)N(CC(=O)N(CCCCN)CC(=O)N(CCCCN)CC(=O)N(CC(=O)N(CCCCN)CC(=O)N[C@@H](CCCCNC(=O)CCCCC1SC[C@@H]2NC(=O)N[C@H]12)C(N)=O)[C@@H](C)c1ccccc1)[C@@H](C)c1ccccc1 (some centres unmarked) [Peptoid Reagent X] (Ac-[Nlys][Nspe][Nlys][Nlys][Nspe][Nlys]K(Biotinyl(4ξ))-NH2) | 7.28 | 114.5 | 478.7 |  |  | 
(GGG)KKRPKPGG [compound 68, reference compound] |  |  |  |  |  | Control Mean (1 ul 10% Normal BH) [1]: 19.2; Exp. Mean (as % of 68) [2]: 100.0% and 100.1%; Mean [2]: 84.98 and 137.9; Mean (% of 68) [2]: 100.0%
(GGG)QWNKPSKPKTN [compound 14, reference compound] |  |  |  |  |  | Mean [2]: 4.74; Mean (% of 68) [2]: 5.58%
Peptoid Reagent III: peptoid reagent comprising SEQ ID NO: 231, Nae-Nmpe-Nmpe-Nae-Nmpe-Nmpe-Nae-Nmpe-Nmpe ([Nae][Nmpe][Nmpe][Nae][Nmpe][Nmpe][Nae][Nmpe][Nmpe]; reading uncertain; also: printed as Nae-Nmpe-Nmpe-Nae-Nmpe-Nmpe-Nae-Nmpe-Nmpe) |  |  |  | 2.15 | 1.83 | 
